Reference: DBAASP
≈ marks a conversion by molar mass, not a printed value. Where “and” joins values, the source holds several entries; their conditions need not be identical. Equal entries are not always repeated.

How the values were obtained:
Assay in all cases: ≥ marks a high value that may be exact or a test limit, other limits are often not marked, values filed in µg/mL are converted to µM
Staphylococcus aureus = test system: Staphylococcus aureus
[1] = test system: Micrococcus luteus ATCC 9341
[2] = test system: Pseudomonas aeruginosa ATCC 9027
[3] = test system: Staphylococcus aureus ATCC 6538
[4] = test system: Proteus vulgaris ATCC 6380
[5] = test system: Candida albicans ATCC 36232
[6] = test system: Escherichia coli ATCC 2592
[7] = test system: Candida tropicalis CGMCC 2.1975
[8] = test system: Staphylococcus epidermidis ATCC 12228
[9] = test system: Staphylococcus aureus ATCC 29213
[10] = test system: Lactiplantibacillus plantarum 8014
[11] = test system: Candida albicans CGMCC 2.2086
[12] = test system: Salmonella enterica subsp. enterica serovar Typhimurium ATCC 14028
[13] = test system: Staphylococcus aureus ATCC 25923
[14] = test system: Salmonella enterica subsp. enterica serovar Typhimurium C77-31
[15] = test system: Candida parapsilosis CGMCC 2.3989
[16] = test system: Lacticaseibacillus rhamnosus 7469
[17] = test system: Pseudomonas aeruginosa PA7
Escherichia coli MG1655 = test system: Escherichia coli MG1655
[18] = test system: Staphylococcus aureus NCTC 8325
[19] = test system: Pseudomonas aeruginosa PAO1
[20] = test system: Pseudomonas aeruginosa PA287
[21] = test system: Pseudomonas aeruginosa PA214
Escherichia coli K-12 = test system: Escherichia coli K-12
[22] = test system: Escherichia coli ATCC 25922
[23] = test system: Klebsiella pneumoniae ATCC 13883
[24] = test system: Staphylococcus aureus JE2
[25] = test system: Pseudomonas aeruginosa E411-17
[26] = test system: Staphylococcus aureus USA 300 LAC
[27] = test system: Klebsiella pneumoniae E406-17
[28] = test system: Staphylococcus aureus M838-17

`CC[C@H](C)[C@H](NC(=O)[C@H](CCCCN)NC(=O)[C@@H]1CCCN1C(=O)[C@H](CC(C)C)NC(=O)[C@H](Cc1ccccc1)NC(=O)[C@H](CC(N)=O)NC(=O)[C@H](C)NC(=O)[C@H](C)NC(=O)[C@H](CC(C)C)NC(=O)CNC(=O)[C@H](C)NC(=O)[C@H](CC(C)C)NC(=O)[C@H](CC(C)C)NC(=O)[C@@H]1CCCN1C(=O)[C@H](CC(C)C)NC(=O)[C@@H](N)Cc1ccccc1)C(=O)N[C@@H](Cc1ccccc1)C(=O)N[C@@H](CS)C(=O)N[C@@H](CCCCN)C(=O)N[C@H](C(=O)N[C@H](C(=O)N[C@@H](CCCN=C(N)N)C(=O)N[C@@H](CCCCN)C(=O)N[C@@H](CS)C(N)=O)[C@@H](C)O)[C@@H](C)CC` [FLPLLAGLAANFLPKIFCKITRKC] was tested, and the MIC (Staphylococcus aureus) was 2.33 µM (≈ 6.25 µg/mL), the MIC [1] was 1.16 µM (≈ 3.12 µg/mL) and the MIC [2] was 1.16 µM (≈ 3.12 µg/mL). For the same molecule, the MIC [3] was 2.33 µM (≈ 6.25 µg/mL), the MIC [4] was no less than 37.3 µM and the MIC [5] was 1.16 µM (≈ 3.12 µg/mL). For the same molecule, the MIC [6] was 2.33 µM (≈ 6.25 µg/mL).

`CC[C@H](C)[C@H](N)C(=O)N[C@@H](Cc1cnc[nH]1)C(=O)N[C@@H](Cc1cnc[nH]1)C(=O)N[C@H](C(=O)N[C@@H](Cc1cnc[nH]1)C(=O)N[C@@H](Cc1cnc[nH]1)C(=O)N[C@H](C(=O)N[C@H](C(=O)N[C@@H](Cc1cnc[nH]1)C(=O)N[C@@H](Cc1cnc[nH]1)C(=O)N[C@H](C(=O)N[C@@H](Cc1cnc[nH]1)C(=O)N[C@@H](Cc1cnc[nH]1)C(=O)N[C@H](C(=O)N[C@H](C(=O)N[C@@H](Cc1cnc[nH]1)C(=O)N[C@@H](Cc1cnc[nH]1)C(=O)N[C@H](C(=O)N[C@@H](Cc1cnc[nH]1)C(=O)N[C@@H](Cc1cnc[nH]1)C(=O)N[C@H](C(=O)N[C@H](C(=O)N[C@@H](Cc1cnc[nH]1)C(=O)N[C@@H](Cc1cnc[nH]1)C(=O)N[C@H](C(=O)N[C@@H](Cc1cnc[nH]1)C(=O)N[C@@H](Cc1cnc[nH]1)C(=O)N[C@H](C(N)=O)[C@@H](C)CC)[C@@H](C)CC)[C@@H](C)CC)[C@@H](C)CC)[C@@H](C)CC)[C@@H](C)CC)[C@@H](C)CC)[C@@H](C)CC)[C@@H](C)CC)[C@@H](C)CC)[C@@H](C)CC` [IHHIHHIIHHIHHIIHHIHHIIHHIHHI] was tested, and the MIC [7] was 8 µM (≈ 28.6 µg/mL), the MIC [8] was greater than 64 µM and the MIC [9] was greater than 64 µM. It also gave an MIC [10] of 2 µM (≈ 7.14 µg/mL), an MIC [11] of no less than 64 µM and an MIC [12] greater than 64 µM. For the same molecule, the MIC [13] was greater than 64 µM, the MIC [14] was no less than 64 µM and the MIC [15] was no less than 64 µM. It also gave an MIC [16] of no less than 64 µM.

For `CC[C@H](C)[C@H](N)C(=O)N[C@@H](Cc1cnc[nH]1)C(=O)N[C@@H](Cc1cnc[nH]1)C(=O)N[C@H](C(=O)N[C@@H](Cc1cnc[nH]1)C(=O)N[C@@H](Cc1cnc[nH]1)C(=O)N[C@H](C(=O)N[C@H](C(=O)N[C@@H](Cc1cnc[nH]1)C(=O)N[C@@H](Cc1cnc[nH]1)C(=O)N[C@H](C(=O)N[C@@H](Cc1cnc[nH]1)C(=O)N[C@@H](Cc1cnc[nH]1)C(=O)N[C@H](C(N)=O)[C@@H](C)CC)[C@@H](C)CC)[C@@H](C)CC)[C@@H](C)CC)[C@@H](C)CC` [IHHIHHIIHHIHHI], the MIC [7] was 1 µM (≈ 1.79 µg/mL), the MIC [8] was greater than 64 µM and the MIC [9] was greater than 64 µM. The MIC [10] was no less than 64 µM, the MIC [11] was 8 µM (≈ 14.3 µg/mL) and the MIC [12] was 32 µM and 64 µM. It also gave an MIC [13] greater than 64 µM, an MIC [15] of 4 µM (≈ 7.17 µg/mL) and an MIC [16] of no less than 64 µM.

For `CC[C@H](C)[C@H](N)C(=O)N[C@@H](CCCCN)C(=O)N[C@H](C(=O)N1CCC[C@H]1C(=O)N1CCC[C@H]1C(=O)N[C@H](C(=O)N[C@H](C(=O)N[C@@H](CCCCN)C(=O)N[C@@H](CC(=O)O)C(=O)N[C@H](C(=O)N[C@@H](CC(C)C)C(=O)N[C@@H](CCCCN)C(=O)N[C@@H](CCCCN)C(=O)N[C@H](C(=O)N[C@@H](C)C(=O)N[C@@H](CCCCN)C(=O)NCC(=O)N[C@H](C(=O)N[C@@H](CC(C)C)C(=O)N[C@@H](CO)C(=O)N[C@H](C(=O)N[C@H](C(=O)N[C@@H](C)C(=O)N[C@@H](CC(=O)O)C(=O)N[C@@H](C)C(=O)N[C@@H](CC(C)C)C(=O)N[C@@H](CO)C(=O)N[C@@H](CCCCN)C(=O)N[C@@H](CO)C(=O)O)C(C)C)[C@@H](C)O)C(C)C)C(C)C)[C@@H](C)O)C(C)C)[C@@H](C)CC)[C@@H](C)CC` [IKIPPIVKDTLKKVAKGVLSTVADALSKS], the MIC [17] was 8 µM (≈ 24.2 µg/mL), the MIC (Escherichia coli MG1655) was 1 µM (≈ 3.02 µg/mL) and the MIC [18] was no less than 362 µM. For the same molecule, the MIC [19] was 5.66 µM (≈ 17.1 µg/mL).

`C[C@H](NC(=O)[C@H](C)NC(=O)[C@H](Cc1ccccc1)NC(=O)[C@H](C)NC(=O)[C@H](CCCCN)NC(=O)[C@H](C)NC(=O)[C@H](Cc1c[nH]c2ccccc12)NC(=O)[C@H](C)NC(=O)[C@H](CCCCN)NC(=O)[C@H](C)NC(=O)[C@H](Cc1ccccc1)NC(=O)[C@H](C)NC(=O)[C@H](C)NC(=O)[C@H](CCCCN)NC(=O)[C@H](CCCCN)NC(=O)[C@H](CCCCN)NC(=O)[C@@H](N)CCCCN)C(N)=O` [KKKKAAFAKAWAKAFAA] gave an MIC [20] of no less than 50 µM, an MIC [21] of no less than 50 µM and an MIC [19] of 50 µM (≈ 91.8 µg/mL). It also gave an MIC (Escherichia coli K-12) of 12.5 µM (≈ 22.9 µg/mL).

`CC(C)C[C@H](NC(=O)[C@H](CC(C)C)NC(=O)[C@H](CCCCN)NC(=O)[C@H](CC(C)C)NC(=O)CNC(=O)[C@H](CC(C)C)NC(=O)[C@H](CCCCN)NC(=O)[C@H](CC(C)C)NC(=O)[C@H](CC(C)C)NC(=O)[C@H](CC(C)C)NC(=O)[C@H](CCCCN)NC(=O)[C@H](CC(C)C)NC(=O)[C@@H](N)CCCCN)C(N)=O` [KLKLLLKLGLKLL] gave an MIC [22] greater than 25 µM, an MIC [23] of 25 µM (≈ 37.3 µg/mL) and an MIC [24] of 1.56 µM (≈ 2.33 µg/mL). The MIC [19] was greater than 25 µM.

Work on `CC[C@H](C)[C@H](NC(=O)[C@H](CCC(=O)O)NC(=O)[C@H](CCCCN)NC(=O)[C@H](C)NC(=O)[C@@H](NC(=O)[C@H](CCCCN)NC(=O)[C@H](CCCCN)NC(=O)[C@H](CC(C)C)NC(=O)[C@@H](NC(=O)[C@H](CC(=O)O)NC(=O)[C@H](CCCN=C(N)N)NC(=O)[C@@H](NC(=O)[C@H](Cc1ccccc1)NC(=O)CNC(=O)[C@@H]1CCCN1C(=O)[C@@H](NC(=O)[C@H](CCCCN)NC(=O)[C@@H](N)CC(C)C)[C@@H](C)CC)C(C)C)[C@@H](C)O)C(C)C)C(=O)N[C@@H](Cc1ccccc1)C(=O)N[C@@H](CO)C(=O)N[C@@H](C)C(=O)N[C@H](C(=O)N[C@H](C(=O)NCC(=O)N[C@@H](C)C(=O)N[C@H](C(=O)N[C@H](C(=O)N[C@@H](CCC(N)=O)C(=O)N[C@@H](CO)C(=O)O)[C@@H](C)O)C(C)C)[C@@H](C)O)C(C)C` [LKIPGFVRDTLKKVAKEIFSAVTGAVTQS] yielded an MIC [17] of 4 µM (≈ 12.4 µg/mL), an MIC (Escherichia coli MG1655) of 1 µM (≈ 3.1 µg/mL) and an MIC [18] of no less than 128 µM. The MIC [19] was 4 µM (≈ 12.4 µg/mL).

With `CC[C@H](C)[C@H](NC(=O)[C@H](CCCCN)NC(=O)[C@@H](N)CCCN=C(N)N)C(=O)N[C@@H](Cc1c[nH]c2ccccc12)C(=O)N[C@@H](Cc1c[nH]c2ccccc12)C(=O)N[C@@H](Cc1c[nH]c2ccccc12)C(=O)N[C@@H](Cc1c[nH]c2ccccc12)C(=O)N[C@@H](CC(C)C)C(N)=O` [RKIWWWWL] the MIC [22] was 6.2 µM (≈ 7.89 µg/mL), the MIC [23] was 4.38 µM (≈ 5.58 µg/mL) and the MIC [25] was no less than 50 µM. It also gave an MIC [26] of 4.38 µM (≈ 5.58 µg/mL), an MIC [27] of 12.5 µM (≈ 15.9 µg/mL) and an MIC [28] of 8.8 µM (≈ 11.2 µg/mL).
